# According to patent publication EP4603105A1, “PHARMACEUTICAL COMPOSITION CONTAINING CYCLIC COMPOUND HAVING SELECTIVE KRAS INHIBITORY EFFECT AGAINST HRAS AND NRAS” (CHUGAI SEIYAKU KABUSHIKI KAISHA, priority 2022, dated 2024):
# Legend:
# [1] = molecular target: GDP-bound NRAS wild-type protein (Homo sapiens, UniProt P01111); assay: Binding to NRAS by surface plasmon resonance (SPR), KD and KD ratio to KRAS
# In short: (§1)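 Recombinant RAS proteins bearing a biotinylated Avi tag and loaded with GDP served as the captured ligand, recaptured fresh every cycle. Binding responses were referenced to an uncoated surface and a buffer-only blank cycle. Dissociation constants were obtained by 1:1 model fitting at 30°C.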
# [2] = molecular target: HRAS wild-type protein (Homo sapiens, UniProt P01112); assay: Binding to HRAS by surface plasmon resonance (SPR), KD and KD ratio to KRAS
# HRAS wild-type protein, sequence (P01112 whole entry): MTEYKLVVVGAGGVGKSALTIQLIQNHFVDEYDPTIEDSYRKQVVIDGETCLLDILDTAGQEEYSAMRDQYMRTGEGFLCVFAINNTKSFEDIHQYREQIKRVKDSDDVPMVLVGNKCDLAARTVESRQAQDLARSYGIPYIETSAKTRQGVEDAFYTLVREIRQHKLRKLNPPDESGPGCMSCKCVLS
# In short: as §1
# [3] = system: human lung cancer strain NCI-H441; assay type: cell-based
# In short: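 Signal came from […] measured per well once the reagent was added. Beforehand, cells were cultured at 37°C and 5% carbon dioxide on a compound series serially diluted in dimethyl sulfoxide.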
# [4] = ratio of KD for GDP-bound NRAS wild-type protein to KD for KRAS
# [5] = ratio of KD for HRAS wild-type protein to KD for KRAS
# [6] = ratio of KD value for GDP-bound NRAS wild-type protein to KD value for KRAS (SPR)
# [7] = ratio of KD value for HRAS wild-type protein to KD value for KRAS (SPR)
# GDP-bound NRAS wild-type protein, sequence (P01111 whole entry): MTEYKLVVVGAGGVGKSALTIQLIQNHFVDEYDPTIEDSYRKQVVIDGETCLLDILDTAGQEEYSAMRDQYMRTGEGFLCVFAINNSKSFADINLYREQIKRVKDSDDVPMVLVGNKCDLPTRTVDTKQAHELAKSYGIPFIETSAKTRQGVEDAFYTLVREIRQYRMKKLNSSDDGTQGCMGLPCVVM
Structure (SMILES),IC50 [3] [nM],"NRAS /KRAS [1, 4]","HRAS /KRAS [2, 5]",other results
CCO[C@@H]1C[C@H]2C(=O)NC3(CC(C)(C)C3)C(=O)N(C)[C@@H](C3CCCC3)C(=O)N(C)[C@H](C(=O)N(C)CC)CC(=O)N(C)[C@@H](CC(C)C)C(=O)N[C@@H]([C@@H](C)CC)C(=O)N(C)CC(=O)N(C)[C@H]3C/C=C\CCN(C3=O)[C@@H](Cc3ccc(C(F)F)cc3)C(=O)N(C)CC(=O)N[C@@H](CCc3ccc(Cl)c(Cl)c3)C(=O)N2C1 [PP2827],21,A (a compound having 10 or more and less than 20 is denoted as A),B (a compound having 3 or more and less than 10 is denoted as B),
CCC(CC)[C@H]1C(=O)N(C)[C@H](C(=O)N(C)C)CC(=O)N(C)[C@@H](COC)C(=O)N[C@@H]([C@@H](C)CC)C(=O)N(C)CC(=O)N(C)[C@H]2C/C=C\CCN(C2=O)[C@@H](Cc2ccc(C(F)(F)F)cc2)C(=O)N(C)CC(=O)N[C@@H](CCc2ccc(Cl)c(Cl)c2)C(=O)N2CCOC[C@H]2C(=O)NC2(CC(C)(C)C2)C(=O)N1C [PP2941],104,AA (a compound having 20 or more is denoted as AA),A (a compound having 10 or more and less than 20 is denoted as A),
CCO[C@@H]1C[C@H]2C(=O)NC3(CCC3)C(=O)N(C)[C@@H](C3CCCC3)C(=O)N(C)[C@H](C(=O)N(C)CCOC)CC(=O)N(C)[C@@H](CC(C)C)C(=O)N[C@@H]([C@@H](C)CC)C(=O)N(C)CC(=O)N(C)[C@H]3C/C=C\CCN(C3=O)[C@@H](Cc3ccc(C(F)(F)F)cc3)C(=O)N(C)CC(=O)N[C@@H](CCc3ccc(C(F)(F)F)c(OC)c3)C(=O)N2C1 [PP1324],4.4,,,NRAS /KRAS ([1]; ratio of KD with respect to GDP-bound NRAS wild-type protein to KD with respect to KRAS): A (a compound having 10 or more and less than 20 is denoted as A); HRAS /KRAS ([2]; ratio of KD with respect to HRAS wild-type protein to KD with respect to KRAS): A (a compound having 10 or more and less than 20 is denoted as A)
CC[C@H](C)[C@@H]1NC(=O)[C@H](CC2CC2)N(C)C(=O)C[C@@H](C(=O)N(C)C)N(C)C(=O)[C@H](C2CCCC2)N(C)C(=O)C2(CCC2)N(C)C(=O)[C@@H]2CCCN2C(=O)[C@H](CCc2cc(F)c(C(F)(F)F)c(F)c2)NC(=O)CN(C)C(=O)[C@H](Cc2ccc(C)cc2)N2CC/C=C\C[C@@H](C2=O)N(C)C(=O)[C@@H]2CCCN2C1=O [PP1798],7.8,,,"NRAS /KRAS [1, 6]: A (a compound having 10 or more and less than 20 is denoted as A); HRAS /KRAS [2, 7]: B (a compound having 3 or more and less than 10 is denoted as B)"
CCO[C@@H]1C[C@H]2C(=O)NC3(CC(F)(F)C3)C(=O)N(C)[C@@H](C3CCCC3)C(=O)N3CCC[C@@H]3CC(=O)N(C)[C@@H](CC3CC3)C(=O)N[C@@H]([C@@H](C)CC)C(=O)N(C)CC(=O)N(C)[C@H]3C/C=C\CCN(C3=O)[C@@H](Cc3ccc(C(F)(F)F)cc3)C(=O)N(C)CC(=O)N[C@@H](CCc3cc(F)c(C(F)(F)F)c(F)c3)C(=O)N2C1 [PP1615],20.9,,,"NRAS /KRAS [1, 6]: B (a compound having 3 or more and less than 10 is denoted as B); HRAS /KRAS [2, 7]: B (a compound having 3 or more and less than 10 is denoted as B)"
CCO[C@@H]1C[C@H]2C(=O)NC3(CC(C)(C)C3)C(=O)N(C)[C@@H](C3CCCC3)C(=O)N(C)[C@H](C(=O)N(C)CC)CC(=O)N(C)[C@H]3CCCC/C=C/c4ccc(cc4)C[C@@H](C(=O)N(C)CC(=O)N[C@@H](CCc4ccc(Cl)c(Cl)c4)C(=O)N2C1)N1CC/C=C\C[C@@H](C1=O)N(C)C(=O)CN(C)C(=O)[C@H]([C@@H](C)CC)NC3=O [PP2592],7.9,A (a compound having 10 or more and less than 20 is denoted as A),A (a compound having 10 or more and less than 20 is denoted as A),
CCO[C@@H]1C[C@H]2C(=O)NC3(CC(C)(C)C3)C(=O)N(C)[C@@H](C3CCCC3)C(=O)N(C)[C@H](C(=O)N(C)C)CC(=O)N(C)[C@H]3CCCCCc4ccc(cc4)C[C@@H](C(=O)N(C)CC(=O)N[C@@H](CCc4ccc(Cl)c(Cl)c4)C(=O)N2C1)N1CC/C=C\C[C@@H](C1=O)N(C)C(=O)CN(C)C(=O)[C@H]([C@@H](C)CC)NC3=O [PP3076],4.1,AA (a compound having 20 or more is denoted as AA),A (a compound having 10 or more and less than 20 is denoted as A),
CCC[C@H]1C(=O)N[C@@H]([C@@H](C)CC)C(=O)N(C)CC(=O)N(C)[C@H]2C/C=C\CCN(C2=O)[C@@H](Cc2ccc(C(F)(F)F)cc2)C(=O)N(C)CC(=O)N[C@@H](CCc2ccc(C(F)(F)F)c(Cl)c2)C(=O)N2CC3(CC3)C[C@H]2C(=O)NC2(CC(C)(C)C2)C(=O)N(C)[C@@H]([C@@H](C)CC)C(=O)N(C)[C@H](C(=O)N(C)C)CC(=O)N1C [PP2983],18.7,AA (a compound having 20 or more is denoted as AA),A (a compound having 10 or more and less than 20 is denoted as A),
CCC[C@H]1C(=O)N[C@@H]([C@@H](C)CC)C(=O)N(C)CC(=O)N(C)[C@H]2C/C=C\CCN(C2=O)[C@@H](Cc2ccc(C(F)(F)F)cc2)C(=O)N(C)CC(=O)N[C@@H](CCc2ccc(Cl)c(Cl)c2)C(=O)N2C[C@H](OCC)C[C@H]2C(=O)NC2(CC(C)(C)C2)C(=O)N(C)[C@@H](CC2CC2)C(=O)N(C)[C@H](C(=O)N(C)C)CC(=O)N1C [PP2811],100,A (a compound having 10 or more and less than 20 is denoted as A),A (a compound having 10 or more and less than 20 is denoted as A),

# More lines, main results first:
IC50 [3] [nM],Structure (SMILES),"NRAS /KRAS [1, 4]","HRAS /KRAS [2, 5]",other results
3.8,CCO[C@@H]1C[C@H]2C(=O)NC3(CCC3)C(=O)N(C)[C@@H](C3CCCC3)C(=O)N(C)[C@H](C(=O)N(C)C)CC(=O)N(C)[C@@H](CC)C(=O)N[C@@H]([C@@H](C)CC)C(=O)N(C)CC(=O)N(C)[C@H]3CCCCN(C3=O)[C@@H](Cc3ccc(C(F)(F)F)cc3)C(=O)N(C)CC(=O)N[C@@H](CCc3cc(F)c(C(F)(F)F)c(F)c3)C(=O)N2C1 [PP0693],,,NRAS /KRAS ([1]; ratio of the KD value with respect to GDP-bound NRAS wild-type protein to the KD value with respect to KRAS): C (A compound having a KD ratio of 0.1 or more and less than 3 is denoted as C); HRAS /KRAS ([2]; ratio of the KD value with respect to HRAS wild-type protein to the KD value with respect to KRAS): C (A compound having a KD ratio of 0.1 or more and less than 3 is denoted as C)
43.7,CC[C@H](C)[C@@H]1NC(=O)[C@H](CC(C)C)N(C)C(=O)C[C@@H](C(=O)N2CCOCC2)N(C)C(=O)[C@H](C2CCCC2)N(C)C(=O)C2(CCC2)NC(=O)[C@@H]2C[C@@H](C(F)(F)F)CN2C(=O)[C@H](CCc2cc(F)c(C(F)(F)F)c(F)c2)NC(=O)CN(C)C(=O)[C@H](Cc2ccc(C(F)(F)F)cc2)N2CCCCC[C@@H](C2=O)N(C)C(=O)CN(C)C1=O [PP0818],B (a compound having 3 or more and less than 10 is denoted as B),B (a compound having 3 or more and less than 10 is denoted as B),
68.4,CC[C@H](C)[C@@H]1NC(=O)[C@H](CC)N(C)C(=O)C[C@@H](C)N(C)C(=O)[C@H](C2CCCC2)N(C)C(=O)C2(CCCC2)NC(=O)[C@@H]2CCCN2C(=O)[C@H](CCc2cc(F)c(C(F)(F)F)c(F)c2)NC(=O)CN(C)C(=O)[C@H](Cc2ccc(C(F)(F)F)cc2)N2CC/C=C\C[C@@H](C2=O)N(C)C(=O)CN(C)C1=O [PP1101],B (a compound having 3 or more and less than 10 is denoted as B),B (a compound having 3 or more and less than 10 is denoted as B),
20.6,CCO[C@@H]1C[C@H]2C(=O)NC3(CCC3)C(=O)N(C)[C@@H](C3CCCC3)C(=O)N(C)[C@H](C(=O)N(C)C)CC(=O)N(C)[C@@H](CC(F)F)C(=O)N[C@@H]([C@@H](C)CC)C(=O)N(C)CC(=O)N(C)[C@H]3C/C=C\CCN(C3=O)[C@@H](Cc3ccc(C(F)(F)F)cc3)C(=O)N(C)CC(=O)N[C@@H](CCc3cc(F)c(C(F)(F)F)c(F)c3)C(=O)N2C1 [PP1120],A (a compound having 10 or more and less than 20 is denoted as A),A (a compound having 10 or more and less than 20 is denoted as A),
42.4,CCO[C@@H]1C[C@H]2C(=O)NC3(CCC3)C(=O)N(C)[C@@H](C3CCCC3)C(=O)N(C)[C@H](C(=O)N(C)C)CC(=O)N(C)[C@@H](Cc3ccc(F)cc3)C(=O)N[C@@H]([C@@H](C)CC)C(=O)N(C)CC(=O)N(C)[C@H]3CCCCCN(C3=O)[C@@H](Cc3ccc(C(F)(F)F)cc3)C(=O)N(C)CC(=O)N[C@@H](CCc3cc(F)c(C(F)(F)F)c(F)c3)C(=O)N2C1 [PP0936],B (a compound having 3 or more and less than 10 is denoted as B),B (a compound having 3 or more and less than 10 is denoted as B),
255,CCCCO[C@@H]1C[C@H]2C(=O)NC3(CCC3)C(=O)N(C)[C@@H](C3CCCC3)C(=O)N(C)[C@H](C(=O)N3CCOCC3)CC(=O)N(C)[C@@H](CC(C)C)C(=O)N[C@@H]([C@@H](C)CC)C(=O)N(C)CC(=O)N(C)[C@H]3CCCCCN(C3=O)[C@@H](Cc3ccc(C(F)(F)F)cc3)C(=O)N(C)CC(=O)N[C@@H](CCc3cc(F)c(C(F)(F)F)c(F)c3)C(=O)N2C1 [PP1004],B (a compound having 3 or more and less than 10 is denoted as B),B (a compound having 3 or more and less than 10 is denoted as B),
9250,CC[C@H](C)[C@@H]1NC(=O)[C@H](CC(C)C)N(C)C(=O)CSC[C@H](C(=O)N(C)C)N(C)C(=O)[C@H](C2CCCC2)N(C)C(=O)C2(CCCC2)NC(=O)[C@@H]2CCCN2C(=O)[C@@H](CCc2cc(F)c(C(F)(F)F)c(F)c2)NC(=O)CN(C)C(=O)[C@H](Cc2ccc(C(F)(F)F)cc2)N2CC=CC[C@@H](C2=O)N(C)C(=O)CN(C)C1=O [PP3108],C (A compound having a KD ratio of 0.1 or more and less than 3 is denoted as C),B (a compound having 3 or more and less than 10 is denoted as B),
